Results from patent US7635464B2, “Selective targeting of apoptotic cells” (New South Innovations Pty Limited, priority 2001, dated 2009).
Residues, ends and D or L forms follow the SMILES beside them. *: point of attachment. Cbz = O=C(OCc1ccccc1)*; CH2F = FC*

Key:
HT1080 cells [1] = assay: Labelling of cells with GSAO-B (lysate SDS-PAGE, avidin-peroxidase blot, PDI Western blot); assay type: cell-based, human; conditions: 5-fold molar excess (50 μM) of dimercaptopropanol
Experimental: HT1080 cells were for 20 h with 1 μg.mL^−1 camptothecin and labeled with 10 μM GSAO and annexin V-PE as described above for labelling with GSAO-F and annexin V-PE. Cells were sorted on the basis of their annexin V-PE fluorescence, washed three times with PBS and 4×10^4 cells were lysed in 40 μL of RIPA buffer (50 mM Tris-HCl, 0.5 M NaCl, 1% Triton X-100, 1% sodium deoxycholate, 0.1% SDS, 10 μM leupeptin, 10 μM aprotinin, 2 mM phenylmethylsulfonyl fluoride, 5 mM EDTA, pH 8.0) at 4° C. Equal amounts of lysate were electrophoresed on an 8-16% gradient SDS-polyacrylamide gel (Gradipore, Sydney), transferred to […] (PVDF) membrane (Millipore, Bedford, Mass.) and biotinylated proteins were detected with a 1:2000 dilution of avidin-peroxidase (Molecular Probes, Eugene, Oreg.). To identify proteins that had incorporated GSAO-B, 20 μl of RIPA lysate was incubated with 5 μl streptavidin-dynabeads (Dynal Biotech, Oslo, Norway) for 15 min at 4° C. The beads were then washed twice with RIPA buffer, resuspended in 20 μl SDS-PAGE loading buffer, resolved on SDS-PAGE, transferred to polyvinylidene difluoride membrane, and the PDI was detected by Western blot using 2 μg.mL^−1 of anti-PDI polyclonal antibodies (Donoghue et al., 2000) and 1:2000 dilution of goat anti-rabbit peroxidase-conjugated antibodies (Dako Corporation, Carpinteria, Calif.). […]

HT1080 cells [2] = assay: Confocal microscopy of GSAO- and annexin V-labelled cells; assay type: cell-based, human; conditions: camptothecin-treated; 10 μM GSAO-F
Experimental: HT1080 cells were treated for 20 h with 1 μg.mL^−1 camptothecin, then detached with PBS containing 10 mM EDTA, washed with annexin V binding buffer, and incubated for 15 min in annexin V binding buffer containing 10 μM GSAO-F and 1:20 (v/v) Alexa594conjugated annexin V (Molecular Probes, Eugene, Oreg.). The cells were then washed twice with annexin V binding buffer and pipetted onto a microscope slide. Transverse cell sections were captured using an Olympus BX60 microscope and an Optiscan F900e confocal unit and software (Optiscan, Notting Hill, Austrlia).

HT1080 cells [3] = assay: Flow cytometry of GSAO- and annexin V-labeled cells; assay type: cell-based, human
Experimental: HT1080 cells were treated for 20 h with 1 μg.mL^−1 camptothecin (Calbiochem, San Diego, Calif.), then detached with PBS containing 2.5 mM EDTA and combined with cells that had detached during incubation. The cells were washed twice with annexin V binding buffer (10 mM Hepes, 140 mM NaCl, 2.5 mM CaCl2, pH 7.4), and 2×10^5 cells per treatment were incubated in 100 μL annexin V binding buffer containing 10 μM GSAO-F or GSAA-F for 15 min at room temperature with shaking. The cells were washed twice, then incubated for 15 min in 100 μL annexin V binding buffer containing 5 μl phycoerythrin-conjugated annexin V (annexin V-PE) (PharMingen, San Diego, Calif.) and 1 μl of a 100 μg.mL^−1 solution of propidium iodide (Molecular Probes, Eugene, Oreg.). The total volume was then made up to 500 μl with annexin V binding buffer, and the samples were transferred to ice. Flow cytometry was performed using a FACSstar flow cytometer (Beckton Dickson). Results are derived from 10^4 cells per sample. To test the effect of caspase inhibition on to GSAO-F uptake, cells were treated with camptothecin in the absence or presence of 10 μg.mL^−1 Z-VAD-FMK (carbobenzoxy-valyl-alanyl-aspartyl-[O-methyl]-fluoromethylketone) (Calbiochem-Novabiochem, San Diego, Calif.), then detached, washed and incubated in annexin V binding buffer containing 10 μM GSAO-F for 15 min. The cells were washed twice and subjected to flow cytometry.

[4] = system: murine Lewis lung tumours; assay: In vivo near-infrared imaging of Lewis lung tumours; parameters: species or system C57BL/6 mice; conditions: 0.8 mg/kg S.C.
Experimental: (§1) C57BL/6 (Jackson Labs, Bar Harbor, ME) mice bearing S.C. Lewis lung tumours, SCID (Massachusetts General Hospital, Boston, Mass.) bearing S.C. BxPC3 tumours or TRAMP (Greenberg et al., 1995) mice were given 0.8 mg/kg GSAO-Cy™5.5, GSAA-Cy™5.5 or Cy™5.5 dye alone in 0.1 mL of PBS containing 20 mM glycine by S.C. injection in the right hind flank. The S.C. tumours were established in the proximal dorsum.
(§2) The imaging system utilised a Leica Microsystems fluorescence microscope (Allendale, N.J.) with a 100 W halogen lamp source and a filter system for CY™5.5 (Chroma Technology, Brattleboro, Vt.). Anaesthetised mice were restrained in a light proof box and fluorescence detected by a 12-bit monochrome charged coupled device (Photometrics, Tuscon, Ariz.). Exposure time was 8 seconds with images digitally acquired as 16-bit Tiff files in IPLab (Scanalytics, Fairfax, Va.). White light images of the tumours were also acquired.

[5] = system: human BxPC-3 pancreatic carcinoma tumours; assay: In vivo near-infrared imaging of BxPC-3 tumours; parameters: species or system SCID mice; conditions: 0.8 mg/kg S.C.
Experimental: as §1, §2

OCC(S)CS (centres unmarked) [dimercaptopropanol, 2,3-dimercaptopropanol, reference compound]
effect on labelling of apoptotic cellular proteins by GSAO-B (HT1080 cells [1]): ablated

O=[As]c1ccc(NC(=O)CSC[C@H](NC(=O)CC[C@H](NC(=O)CCSCC(=O)Nc2ccc(-c3c4ccc(=O)cc-4oc4cc(O)ccc34)c(C(=O)O)c2)C(=O)O)C(=O)NCC(=O)O)cc1 (some centres unmarked) [GSAO-F]
distribution in annexin V-positive cells (HT1080 cells [2]): distributed in the cytoplasm | fluorescence in cells that did not label with annexin V (HT1080 cells [2]): negligible | increase in the proportion of cells whose fluorescein fluorescence was greater than 1027 units (HT1080 cells [3]; 10 μM label, 15 min, camptothecin-treated vs untreated cells): 8.6 fold | mean fluorescein fluorescence (HT1080 cells [3]; camptothecin-treated cell population, 10 μM label): 1400 units | mean fluorescein fluorescence (HT1080 cells [3]; untreated cells, 10 μM label): 255 units | binding to apoptotic and dead cells (HT1080 cells [3]; with annexin V-PE and propidium iodide): bound to both apoptotic and dead cells

COC(=O)C[C@H](NC(=O)[C@H](C)NC(=O)[C@@H](NC(=O)OCc1ccccc1)C(C)C)C(=O)CF [Z-VAD-FMK, carbobenzoxy-valyl-alanyl-aspartyl-[O-methyl]-fluoromethylketone, reference compound] (Cbz-Val-Ala-Asp(OMe)-CH2F)
effect on the increase in GSAO-F positive cells seen with camptothecin treatment (HT1080 cells [3]; Z-VAD-FMK 10 μg.mL−1 during camptothecin treatment): substantially blocked

CC[C@@]1(O)C(=O)OCc2c1cc1n(c2=O)Cc2cc3ccccc3nc2-1 [camptothecin, reference compound]
increase in the proportion of cells with phycoerythrin fluorescence greater than 100 fluorescence units (annexin V-positive) (HT1080 cells [3]; camptothecin 1 μg.mL−1, 20 h vs untreated): 7.3 fold

Cy™5.5
labelling of Lewis lung tumours by controls [4]: Neither GSAA-Cy™5.5 nor Cy™5.5 labelled | tumour labelling at 24 hours [5]: Neither GSAA-Cy™5.5 (FIG. 11d(B)) nor Cy™5.5 (FIG. 11d(D)) labelled BxPC3 tumours
